For orientation: IC50 means the point on the concentration scale where inhibition reaches its midpoint.

Data on five molecules can be found in US10350213B2 (AI Therapeutics, Inc., priority 2015, dated 2019).

Structures are written as SMILES.

The subject of experiment [1] is WSU-DLCL2 (Human Diffuse Large B Cell Lymphoma -GCB). The experiment in a line: CellTiterGlo cell viability assay. Format: cell-based. To be noted: Homo sapiens, WSUDLCL2, 72 h, three-day assay, read-out: IC50 (nM) WSU-DLCL2. A general note: Cellular ATP, detected with luciferase, serves as a proxy for viable cell number.
Experiment [2] concerns SUDHL-4 (Human Diffuse Large B Cell Lymphoma -GCB). Kind of experiment: CellTiterGlo cell viability assay. To be noted: Homo sapiens, 72 h; SU-DHL-4; three-day assay; read-out: IC50 (nM) SU-DHL-4. Type of experiment: cell-based.

Consider `CC[C@H](Nc1ncnc2[nH]cnc12)c1nc2cccc(F)c2c(=O)n1-c1ccccc1` [idelalisib], for which the concentration for half-maximal inhibition (IC50) in experiment [1] was 6150 nM; in experiment [2], 2030 nM.
With `C[C@H](Nc1ncnc2nc[nH]c12)c1cc2cccc(Cl)c2c(=O)n1-c1ccccc1` [duvelisib], the concentration for half-maximal inhibition (IC50) was 863 nM in experiment [1] and 13 nM in experiment [2].
For `O=C(/C=C\n1cnc(-c2cc(C(F)(F)F)cc(C(F)(F)F)c2)n1)NNc1cnccn1` [KPT-330], in that order: 165 nM and 93 nM.
For the molecule `C=CC(=O)N1CCC[C@@H](n2nc(-c3ccc(Oc4ccccc4)cc3)c3c(N)ncnc32)C1` [ibrutinib], the IC50 amounted to 747 nM in experiment [1] and 718 nM in experiment [2].
For `CC1(C)CCC(CN2CCN(c3ccc(C(=O)NS(=O)(=O)c4ccc(NCC5CCOCC5)c([N+](=O)[O-])c4)c(Oc4cnc5[nH]ccc5c4)c3)CC2)=C(c2ccc(Cl)cc2)C1` [ABT-199], in that order: 3370 nM and 212 nM.
